Values joined by “and” are separate entries in the source; they are usually repeats but may differ in a detail not shown here. Equal entries are not always repeated. Some results are limits rather than exact numbers.

This assay deals with VA-ES-BJ tumor spheroid viability. The experiment in a line: Anticancer human tumor VA-ES-BJ cell line growth inhibition.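 On all read-outs here: spheroids exposed to compounds for seven days.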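 On viability, T/C: percent of DMSO vehicle control viability so 100% = untreated growth.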 The note with it: spheroids with HUVEC and MSC; for viability, T/C: stronger effect = lower value. An excerpt:
Multicellular complex tumor spheroid response to DNA repair inhibitors in combination with DNA-damaging drugs
This study explores the anticancer activities of DNA-damaging drugs and inhibitors of DNA damage repair, both as single agents and in combinations. Complex tumor spheroids comprised of malignant cells, endothelial cells and mesenchymal stem cells served as an in vitro model for human solid tumors. This model system incorporates physiologically relevant features and patient-derived or established malignant cell lines with clinically relevant genetic alterations from many tumor types. Twenty-six patient-derived or established malignant cell lines were evaluated representing sarcoma, melanoma, small cell lung cancer (SCLC), non-small cell lung cancer (NSCLC), as well as bladder, ovarian and pancreatic cancers. The concentration ranges selected for each drug and investigational agent were based upon clinically achievable concentrations if the clinical Cmax of the agent was known.
Compounds. The drugs and compounds olaparib (NSC753686), talazoparib (NSC767125), berzosertib (NSC777718), elimusertib (NSC800525), nedisertib (NSC802822), VX-984 (NSC792969), AZD-1390 (NSC803789), temozolomide (NSC362856), topotecan (NSC609699), trabectedin (NSC813783), staurosporine (NSC755774), and gemcitabine (NSC613327) were obtained from the National Cancer Institute (NCI) Developmental Therapeutics Program Chemical Repository. The FDA-approved anticancer drug set is available from the Developmental Therapeutics Program at https://dtp.cancer.gov/organization/dscb/obtaining/available_plates.htm. […] The stock solutions were prepared in dimethyl sulfoxide (DMSO, Sigma-Aldrich, St. Louis, MO, cat. D2650) at 400-fold the tested concentration and stored at -70 degrees C. Prior to their use, the stock solutions were diluted in fresh medium and the final DMSO concentration in the assay was 0.25% (v/v). All drugs and investigational agents were tested over a range starting from a high concentration at or near the clinical Cmax and decreasing in half-log increments. If the clinical Cmax for an agent had not been determined, the highest concentration tested was 10 microM.
Cell Lines. The patient-derived cancer cell (PDC) lines: 156681-154-R-J1-PDC, 283228-195-R-J1-PDC, 287954-098-R-J1-PDC, 292921-168-R-J2-PDC, 349418-098-R-PDC, 425362-245-T-J1-PDC, 556581-035-R-J1-PDC, and BL0293-F563-PDC were received from the NCI Patient-Derived Models Repository (PDMR, https://pdmr.cancer.gov). The established cell lines HS-SY-2 (RRID:CVCL_8719), MPNST, and SYO-1 (RRID:CVCL_7146) were obtained from the Sloan Kettering Institute. The alveolar soft parts sarcoma cell line ASPS-1 (RRID:CVCL_S738) was established at the NCI and grown from internal seed stocks. The following established cell lines were purchased from the American Type Culture Collection (ATCC, Manassas, VA): G-401 (ATCC, cat. CRL-1441, RRID:CVCL_0270), SW982 (ATCC, cat. HTB-93, RRID:CVCL_1734), VA-ES-BJ (ATCC, cat. CRL-2138, RRID:CVCL_1785), NCI-H719 (ATCC, cat. CRL-5837, RRID:CVCL_1582), NCI-H196 (ATCC, cat. CRL-5823, RRID:CVCL_1509), NCI-H841 (ATCC, cat. CRL-5845, RRID:CVCL_1595), NCI-H1618 (ATCC, cat. CRL-5879, RRID:CVCL_1480), NCI-H1876 (ATCC, cat. CRL-5902, RRID:CVCL_1503), DMS 114 (ATCC, cat. CRL-2066; RRID:CVCL_1174), NCI-H211 (ATCC, cat. CRL-5824; RRID:CVCL_1529), and SW 1271 (ATCC, cat. CRL-2177, RRID:CVCL_1716). The small cell lung cancer cell line COR-L88 was purchased from Sigma-Aldrich (cat. 92031917-1VL, RRID:CVCL_1141). The non-small cell lung cancer cell lines NCI-H226 (RRID:CVCL_1544) and NCI-H322M (RRID:CVCL_1557) were established at the NCI and grown from internal seed stocks. Pooled donor human umbilical vein endothelial cells (HUVEC, Lonza, cat. CC-2519) and human mesenchymal stem cells (hMSC, Lonza, cat. PT-2501) were purchased from Lonza (Walkersville, MD).
Cell Culture. All cells were maintained in an incubator at 37 degrees C and 5% CO2 with 95% humidity. […]

The IC50 is the midpoint of a concentration-inhibition curve. As a reminder, the viability, T/C is the result in the treated group divided by that in the control group, in per cent. `Cc1cc(C)c(CNC(=O)c2cc(-c3ccc(CN4CCOCC4)cc3)cc3c2cnn3C2CCCC2)c(=O)[nH]1` + COc1cc2c(cc1O)CCNC21CSC2c3c(OC(C)=O)c(C)c4c(c3C(COC1=O)N1C(O)C3Cc5cc(C)c(OC)c(O)c5C(C21)N3C)OCO4: the IC50 reads like this: (curve of first compound, second compound 30 pM) > 10 µM; (curve of first compound, second compound 94.9 pM) > 10 µM; (curve of first compound, second compound 0.0003 µM) < 0.0316 µM; (curve of first compound, second compound 0.000949 µM) < 0.0316 µM; (curve of first compound, second compound 0.003 µM) < 0.0316 µM. Moreover, the viability, T/C is, setting by setting: (second compound 30 pM, first compound 0.0316 µM) 103%; (second compound 30 pM, first compound 0.1 µM) 105%; (second compound 30 pM, first compound 0.316 µM) 109%; (second compound 30 pM, first compound 1 µM) 104%; (second compound 30 pM, first compound 3.16 µM) 101%; (second compound 30 pM, first compound 10 µM) 96.4%. The viability, T/C (second compound 94.9 pM, first compound 0.0316 µM) is 97.6%; the viability, T/C (second compound 94.9 pM, first compound 0.1 µM) is 101%; the viability, T/C (second compound 94.9 pM, first compound 0.316 µM) was 96.8%; the viability, T/C (second compound 94.9 pM, first compound 1 µM) is 95.2%; the viability, T/C (second compound 94.9 pM, first compound 3.16 µM) was 88.7%; the viability, T/C (second compound 94.9 pM, first compound 10 µM) is 82.6%. Moreover, the viability, T/C is 48.5% (second compound 0.0003 µM, first compound 0.0316 µM); 48.4% (second compound 0.0003 µM, first compound 0.1 µM); 47.7% (second compound 0.0003 µM, first compound 0.316 µM); 42.4% (second compound 0.0003 µM, first compound 1 µM); 38.6% (second compound 0.0003 µM, first compound 3.16 µM); 32.6% (second compound 0.0003 µM, first compound 10 µM). Besides, the viability, T/C is 2.91% (second compound 0.000949 µM, first compound 0.0316 µM); 3.27% (second compound 0.000949 µM, first compound 0.1 µM); 3.08% (second compound 0.000949 µM, first compound 0.316 µM); 2.61% (second compound 0.000949 µM, first compound 1 µM); 2.08% (second compound 0.000949 µM, first compound 3.16 µM); 1.68% (second compound 0.000949 µM, first compound 10 µM). For the same molecule, the viability, T/C reads like this: (second compound 0.003 µM, first compound 0.0316 µM) 0.95%; (second compound 0.003 µM, first compound 0.1 µM) 1.8%; (second compound 0.003 µM, first compound 0.316 µM) 1.23%; (second compound 0.003 µM, first compound 1 µM) 1.96%; (second compound 0.003 µM, first compound 3.16 µM) 1.92%; (second compound 0.003 µM, first compound 10 µM) 1.57%.
As for `Cc1cc(C)c(CNC(=O)c2cc(-c3ccc(CN4CCOCC4)cc3)cc3c2cnn3C2CCCC2)c(=O)[nH]1`, the viability, T/C (compound 0.0316 µM) is 101% and 98% and 103%; the viability, T/C (compound 0.1 µM) is 100% and 106% and 101%; the viability, T/C (compound 0.316 µM) was 98.5% and 97.2% and 99.1%; the viability, T/C (compound 1 µM) was 103% (2×) and 100%; the viability, T/C (compound 3.16 µM) was 102% and 107% and 112%; the viability, T/C (compound 10 µM) is 91.8% and 91.9% and 104%. The IC50 (curve of compound) is > 10 µM.
For the molecule `CC(C)n1c(=O)n(C)c2cnc3cc(F)c(-c4ccc(OCCCN5CCCCC5)nc4)cc3c21`, the viability, T/C reads like this: (compound 0.0316 µM) 77.7% and 93.7% and 97.1%; (compound 0.1 µM) 74.2% and 93.9% and 95.2%; (compound 0.316 µM) 73.1% and 90.5% and 92.7%; (compound 1 µM) 85.2% and 100% and 99%; (compound 3.16 µM) 91.6% and 105% (2×); (compound 10 µM) 59.8% and 65.4% and 71.2%. The IC50 (curve of compound) was > 10 µM.

The values are drawn from PubChem BioAssay AID1845217 (Molecular Pharmacology Branch, DTP, NCI, 2023).
